{"source": "the supplement of paper PMC10307832", "test_in_all_cases": "relative viability (nuclei count vs DMSO), 5 days (fraction); higher = more cells survive", "key": {"[1]": {"compound": "CC[C@H](Nc1ncnc2[nH]cnc12)c1nc2cccc(F)c2c(=O)n1-c1ccccc1 [Idelalisib] + Cc1nc(NC(=O)N2CCC[C@H]2C(N)=O)sc1-c1ccnc(C(C)(C)C(F)(F)F)c1 [Alpelisib] (partner 2 µM)", "how_it_was_run": "(§1)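 Dosing by pin tool came one day after lung cancer cell lines were seeded in 1536-well plates, using either one drug or a fixed anchor-drug dose plus five library-drug doses (not always all listed) in √10 steps. After 5 days, nuclei were counted on 4× images. Relative viability is treated-well nuclei count divided by vehicle-well nuclei count, and values are medians of duplicate plates.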"}, "[2]": {"compound": "Nc1nc2[nH]cc(CCc3ccc(C(=O)N[C@@H](CCC(=O)O)C(=O)O)cc3)c2c(=O)[nH]1 [Pemetrexed] + CC(C)C[C@H](NC(=O)[C@H](Cc1ccccc1)NC(=O)c1cnccn1)B(O)O [Bortezomib] (partner 0.002 µM)", "how_it_was_run": "as §1"}, "[3]": {"compound": "CC[C@H](Nc1ncnc2[nH]cnc12)c1nc2cccc(F)c2c(=O)n1-c1ccccc1 [Idelalisib] + CS(=O)(=O)CCNCc1ccc(-c2ccc3ncnc(Nc4ccc(OCc5cccc(F)c5)c(Cl)c4)c3c2)o1 [Lapatinib] (partner 2 µM)", "how_it_was_run": "as §1"}, "[4]": {"compound": "CC[C@H](Nc1ncnc2[nH]cnc12)c1nc2cccc(F)c2c(=O)n1-c1ccccc1 [Idelalisib] + O=C(CCCCCCC(=O)Nc1ccccc1)NO [Vorinostat] (partner 1 µM)", "how_it_was_run": "as §1"}}}
{"cell line": "UMC-11", "values": [{"measurement": "relative viability", "setting": "[1]; first compound 0.04 µM", "result": 1.15}, {"measurement": "relative viability", "setting": "[1]; first compound 0.1265 µM", "result": 0.999}, {"measurement": "relative viability", "setting": "[1]; first compound 0.4 µM", "result": 0.966}, {"measurement": "relative viability", "setting": "[1]; first compound 1.265 µM", "result": 0.987}, {"measurement": "relative viability", "setting": "[1]; first compound 4 µM", "result": 1.05}, {"measurement": "relative viability", "setting": "[2]; first compound 0.002 µM", "result": 0.573}, {"measurement": "relative viability", "setting": "[2]; first compound 0.006325 µM", "result": 0.639}, {"measurement": "relative viability", "setting": "[2]; first compound 0.02 µM", "result": 0.682}, {"measurement": "relative viability", "setting": "[2]; first compound 0.06325 µM", "result": 0.991}, {"measurement": "relative viability", "setting": "[2]; first compound 0.2 µM", "result": 0.698}, {"measurement": "relative viability", "setting": "[3]; first compound 0.04 µM", "result": 1}, {"measurement": "relative viability", "setting": "[3]; first compound 0.1265 µM", "result": 1.02}, {"measurement": "relative viability", "setting": "[3]; first compound 0.4 µM", "result": 0.985}, {"measurement": "relative viability", "setting": "[3]; first compound 1.265 µM", "result": 1.14}, {"measurement": "relative viability", "setting": "[3]; first compound 4 µM", "result": 0.976}, {"measurement": "relative viability", "setting": "[4]; first compound 0.04 µM", "result": 0.474}, {"measurement": "relative viability", "setting": "[4]; first compound 0.1265 µM", "result": 0.392}, {"measurement": "relative viability", "setting": "[4]; first compound 0.4 µM", "result": 0.363}, {"measurement": "relative viability", "setting": "[4]; first compound 1.265 µM", "result": 0.437}, {"measurement": "relative viability", "setting": "[4]; first compound 4 µM", "result": 0.358}]}
